According to paper PMC5667506, “Potent and selective inhibition of SH3 domains with dirhodium metalloinhibitors” (Chemical Science, 2015):
“And” between values parts separate entries of the source, which are not always exact repeats. Identical values can stand only once. Rh2(OAc)3 = dirhodium(II) triacetate, bound to the side-chain carboxylate

What was measured:
[1] = molecular target: T1, Lyn SH3 domain (Homo sapiens, UniProt P07948); assay: ITC binding of metallopeptides to Lyn SH3 domain
T1 construct: The lyn SH3 domain was amplified by PCR using Phusion DNA polymerase; GST (N, cleaved yes); made in house; host or cells: E. coli BL21 (DE3)
From the text: The His96 is unique among Src-family sequences, and the His78 appears only in Hck and Lck. Individual amino-acid alterations are the only factors that might distinguish the nearly identical secondary structures and peptide-binding preferences of Src-family SH3 domains (cf. Fig. 1a and b). Based on a Src-family SH3-binding sequence (VSL12),[37] known to bind with similar affinity across Src-family SH3 domains,[38] we made metallopeptides with rhodium in different sites near the beginning of the SH3-binding peptide. […] The optimal metallopeptide, S2E^Rh, bound to Lyn with 6 nM affinity. The accuracy of ITC data is reduced for C values >1000 (C = [protein]/K d). Under these conditions the distribution of data points on the isotherm reduces the precision of the global fit. Since the enthalpic contributions to binding in the formation of the complexes described in this work were high, we were able to use a low protein concentration (4 μM) which ensured that our C values were well below this upper range. […] In broad terms, the thermodynamics—favourable enthalpy and unfavourable entropy—are consistent with previous examinations of peptide–SH3 binding (see Table S1 ^† for thermodynamic data).[39] Moving the location of the rhodium center toward the N-terminus, away from the histidine, led to a drop in binding affinity. The N13D^Rh metallopeptide, a convenient negative control with the rhodium center too far for histidine interactions, binds with micromolar activity, similar to simple SH3 binding of the parent peptide. We conclude that the vast affinity improvement is due to rhodium coordination to unique histidine residue(s).
(§1) All chemical reagents were purchased from Sigma-Aldrich and were used without further purification.
(§2) Peptide synthesis. All peptides were synthesized manually or with an AAPPTEC APEX 396 Automated Multipeptide Synthesizer using standard solid-phase Fmoc protocols.1,2 Peptides were prepared as C-terminal amides using Rink amide MBHA resin (AAPPTEC) and were acetylated at the N-terminus prior to cleavage from the resin. Peptides and metallopeptides were purified by reverse-phase HPLC.
(§3) HPLC separation. Reverse-phase HPLC was performed on a Shimadzu CBM-20A instrument with Phenomenex Jupiter 4μ Proteo 90A (250 × 15 mm preparative) and Phenomenex Jupiter 4μ Proteo 90A (250 × 4.6 mm analytical) columns. The columns were eluted with a gradient of acetonitrile in water (10-90%) (flow rates of 8 mL/min and 1 mL/min for preparative and analytical columns, respectively). Trifluoroacetic acid (0.1%) was added to all eluents. […]
(§4) ITC analysis. ITC experiments were carried out on a VP-ITC instrument (MicroCal) at 25 °C. Titrations of 275 μM peptide into 18 μM SH3 domain proteins were used for all titrations, except for the titration of S2ERh into Lyn SH3 domain, where the lower concentrations of 69 µM S2ERh peptide and 4 µM Lyn SH3 were used to attain a c-value for the titration within the accepted limts for ITC experiments ([…]).3
(§5) Heats of dilutions were measured independently for each experiment by titrating 275 μM peptide into buffer (20 mM phosphate buffer, pH 7, 150 mM NaCl, 1 mM EDTA). All experimental data were fitted using a one set of sites binding model in Origin software (MicroCal) except for the data with Hck SH3 domain. With Hck only, the non-peptide specific binding of dirhodium tetraacetate to Hck SH3 domain could not be treated as negligible, despite the very weak interaction (88 µM), due to the larger enthalpy contribution observed for non-specific binding to this SH3 domain, so the titrations of peptide into Hck were fitted using a 2 set of sites binding model where the stoichiometry for the second set of sites was fixed at 2.0. […]
(§6) Mass spectrometry. ESI-MS was performed on a Bruker Daltonics micrOTOF instrument.
Known compounds and proteins. Several metallopeptides (S2ERh, L3ERh, R5ERh, and 13DRh) were reported previously and […]

[2] = molecular target: T2, Lck SH3 domain (Homo sapiens, UniProt P06239); assay: ITC binding to Lck SH3 domain
T2 construct: fyn, yes, lck, and src SH3 protein domains were prepared following published procedures; made in house
Protocol: All chemical reagents were purchased from Sigma-Aldrich and were used without further purification. […]
as §4, §5
Known compounds and proteins. […]

[3] = molecular target: T3, Abl SH3 domain (Homo sapiens, UniProt P00519); assay: ITC binding to Abl SH3 domain
T3 construct: The abl SH3 domain was amplified by PCR using Phusion DNA polymerase; GST (N, cleaved yes); made in house; host or cells: E. coli BL21 (DE3)
Protocol: as §1, §2
HPLC separation. Reverse-phase HPLC was performed on a Shimadzu CBM-20A instrument with Phenomenex Jupiter 4μ Proteo 90A (250 × 15 mm preparative) and Phenomenex Jupiter 4μ Proteo 90A (250 × 4.6 mm analytical) columns. The columns were eluted with a gradient of acetonitrile in water (10-90%) (flow rates of 8 mL/min and 1 mL/min for preparative and analytical columns, respectively). Trifluoroacetic acid (0.1%) was added to all eluents.
FPLC separation. Analytical FPLC was performed on an ÄKTA instrument with Superdex Peptide PE 7.5/300 column. The column was equilibrated with buffer (150 mM NaCl, 50 mM Tris, pH 7.0) at flow rate of 0.2 mL/min.
as §4, §5, §6
(§7) Known compounds and proteins. Several metallopeptides (S2ERh, L3ERh, R5ERh, and 13DRh) were reported previously and were prepared by known protocols;4 alkyne-diazo 3,5 3-azido-7-hydroxycoumarin6 were synthesized following reported procedures; fyn, yes, lck, and src SH3 protein domains were prepared following published procedures.5 Abl, hck, and lyn SH3 domain plasmids were adapted from the previously reported genes;7 the gene templates were obtained from Addgene, ID

[4] = molecular target: T4, Hck SH3 domain (Homo sapiens, UniProt P08631); assay: ITC binding to Hck SH3 domain (two-sets-of-sites fit); settings: high affinity specific site
T4 construct: The hck SH3 domain was amplified by PCR using Phusion DNA polymerase; GST (N, cleaved yes); made in house; host or cells: E. coli BL21 (DE3)
Protocol: as §1, §2, §3, §4, §5, §6
as §7, with “ID […]” for “ID”
Table S1. Table of the thermodynamic parameters for binding of metallopeptides to SH3 domains, determined by isothermal […]
Protein Peptide Stoichiometry Kd ΔH -TΔS ΔG
(nM) (kcal mol-1) (kcal mol-1) (kcal mol-1)
* The binding isotherms for metallopeptide interactions with Hck were fitted using a two -sets-of-sites model with the stoichiometry for the second set of sites fixed to 2.0. The second set of binding sites was used to account for the weak, but not negligable, binding of the peptide to another surface of Hck SH3 domain, presumably through non-specific interactions of the dirhodium tetraacetate group. The thermodynamics for the high affinity specific binding site interaction are provided in this

T2 sequence (P06239 61-121 limits assumed): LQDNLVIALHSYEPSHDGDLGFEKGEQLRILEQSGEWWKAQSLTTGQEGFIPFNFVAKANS
T3 sequence (P00519 60-121): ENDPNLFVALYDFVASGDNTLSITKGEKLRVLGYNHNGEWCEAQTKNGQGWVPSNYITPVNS
T4 sequence (P08631 77-139): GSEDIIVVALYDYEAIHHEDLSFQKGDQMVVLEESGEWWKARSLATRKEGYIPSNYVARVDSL
T1 sequence (P07948 62-121): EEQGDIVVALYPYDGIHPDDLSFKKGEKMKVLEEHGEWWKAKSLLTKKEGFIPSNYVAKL

Substance: AcVELARRPLPPLPN-NH2 (Ac-VE(Rh2(OAc)3)LARRPLPPLPN-NH2; also: metal complex: Glu2 carboxylate bound to dirhodium(II) triacetate) [S2E^Rh, rhodium(II) metallopeptide made from S2E peptide (Ac…-NH2) and Rh2(tfa)(OAc)3]
- Kd ([1]; 25 °C): 6 nM and 6.1 nM
- Kd ([2]; 25 °C): 481 nM
- Kd ([3]; 25 °C): 5750 nM

Substance: AcVELARRPLPPLPN-NH2 (Ac-VELARRPLPPLPN-NH2; also: Glu2 side-chain carboxylate bound to Rh2(OAc)3) [S2E^Rh, rhodium(II) metallopeptide made from S2E peptide (Ac…-NH2) and Rh2(tfa)(OAc)3]
- Kd ([4]; 25 °C): 26 nM

Substance: AcVELARRPLPPLPN-NH2 [S2E^Rh]
- Stoichiometry [1]: 1.1
- -TΔS ([1]; 25 °C): 2.7 kcal/mol
- ΔG ([1]; 25 °C): -11.2 kcal/mol
- ΔH ([1]; 25 °C): –13.9 kcal mol-1
- ΔH ([1]; 25 °C, listed as S2ERh): -13.9 kcal/mol
- -TΔS ([4]; 25 °C): 6.9 kcal/mol
- ΔG ([4]; 25 °C): -10.4 kcal/mol
- ΔH ([4]; 25 °C): -17.2 kcal/mol
- Stoichiometry [4]: 0.95
- Stoichiometry [2]: 1.1
- -TΔS ([2]; 25 °C): 2.6 kcal/mol
- ΔG ([2]; 25 °C): -8.6 kcal/mol
- ΔH ([2]; 25 °C): -11.2 kcal/mol
- Stoichiometry [3]: 1.5
- -TΔS ([3]; 25 °C): 10.6 kcal/mol
- ΔG ([3]; 25 °C): -7.1 kcal/mol
- ΔH ([3]; 25 °C): -17.8 kcal/mol
